From patent publication US20240018129A1, “COMPOUNDS AS PU. 1 INHIBITORS” (PEKING UNIVERSITY, priority 2020, published 2024)

Columns and labels:
[1] = test system: HFD/CCL4-induced NASH and liver fibrosis; test: High-fat diet (HFD) combined with CCl4 (lower dose)-induced NASH model; format: in vivo, mouse
Source text: Methods: To evaluate the potential therapeutic effects of compound I-1 on liver disorders, including liver fat steatosis and accumulation, nonalcoholic fatty liver disease (NAFLD), nonalcoholic steatosis hepatitis (NASH), and liver fibrosis, three mice models (C57BL/6, male, 8 weeks old) were used. (I) NASH diet (Code.TD.160785, ENVIGO, USA)-induced NASH model: All mice were fed with NASH diet for 10 weeks. Mice were then randomly distributed into three groups, and each group was assigned to be injected daily with vehicle, compound I-1 (2.5mpk or 5mpk, i.p.), or DB1976 (2.5mpk, i.p, as a positive control) for another 6 weeks on continuous NASH diet. A group with normal regular diet was treated with vehicle as health control. (II) High-fat diet (HFD) combinate with CCl4 (lower dose)—induced NASH model. Mice were fed with normal regular diet or HFD (kcal fat 60%—D12492, research diets) for 10 weeks, then the HFD mice were divided into two groups randomly based on the rule of minimum weight differences. Each group was assigned to be injected with CCl4 (25% v/v in olive oil, 0.5 mL/kg body weight) or pure olive oil (i.p.) twice a week for 4 weeks. Compound 1-1 or vehicle (saline) were injected (i.p.) once daily for 4 weeks at the same time with CCl4 under continuous HFD. (III) CCl4 (higher dose)—induced liver fibrosis model. Liver fibrosis was induced by CCl4 injection (20% v/v in olive oil, 10 mL/kg body weight) twice a week for 6 weeks, compound I-1 or vehicle are also injected (i.p.) once daily for 6 weeks at the same time with CCl4 application. Ail the mice in the above-mentioned three models were observed daily. After the last day of treatment of all the models, mice were fasted overnight and euthanized. Serum was collected after centrifuging of the whole blood at 4 degrees, and blood biochemistry parameters were tested through automatic biochemical instrument (BS-240VET, Mindray). Part of liver tissues were fixed with paraformaldehyde, embedded with paraffin, and then sliced for H&E or Sirius red staining to check pathological features, and NAFLD scores. Kleiner, D. E. et al. Hepatology 41, 1313-1321, doi:10.1002/hep.20701 (2005). Part of liver tissues were used fresh, embedded in optimum cutting temperature compound, and sectioned. The sections were stained with 0.5% oil red 0 according to standard procedures after fixed in 4% paraformaldehyde in PBS. Another part of liver tissues were collected and stored in −80° C. after liquid nitrogen quick-freezing, RNA. isolation (Code.R6934, OMEGA., USA), first cDNA reverse (Code.AT341, TransGen, China), SYBR mix (Code.AQ601, TransGen, China) for Q-PCR (LightCycler®96, Roche) to verify genes mRNA level, such as, fibrosis-related genes, Col1a1 and Col1a2; inflammation-related genes, IL-6 and IL-1β.

[2] = test system: bleomycin-induced skin fibrosis; test: bleomycin-induced skin fibrosis, preventive and therapeutic models; format: in vivo, mouse
Description: Methods: To evaluate the preventive and therapeutic effects of compound I-1 on skin fibrosis, bleomycin was used to establish two animal models of skin fibrosis with different drug intervention (6-8 weeks, C57BL/6, male). Skin fibrosis was induced by local injection of bleomycin (0.5 mg/mL, 0.1 ml/mouse) in a skin defined area (˜1 cm^2), where the hair was removed in advance, at the upper back every other day. Subcutaneous saline injections served as controls. (I) Preventive model of bleomycin-induced skin fibrosis: Compound I-1, positive control DB1976, or vehicle (saline) were injected i.p. simultaneously with bleomycin for 4 weeks (FIG. 3a). (II) Therapeutic model of bleomycin-induced skin fibrosis: Mice were pre-charged with bleomycin for 3 weeks to induce skin fibrosis, then treated with compound I-1, positive control DB1976, or vehicle (saline) for another 3 weeks, total time is 6 weeks after the first bleomycin treatment (FIG. 30. After the last day of treatment of both models, mice were fasted overnight and euthanized. Part of the skin was fixed with paraformaldehyde after fully flat on a foil, embedded with paraffin, and then sliced for H&E, Sirius red and Masson staining to check pathological features. The epidermal thickness of each sample was calculated quantitatively with image J. Another part of skin was collected and stored at −80° C. after liquid nitrogen quick-freezing, RNA isolation (Code.R6934, OMEGA, USA), first cDNA reverse (Code.AT341, TransGen, China), SYBR mix (Code.AQ601, TransGen, China) for Q-PCR (LightCycler® 96, Roche) to verify several fibrosis-related genes mRNA level, such as, Col1a1 and Col1a2.

[3] = test system: T-ALL blast cells and TIM-3-high LICs; test: Pten-null T-ALL mouse model, compound I-1 and/or rapamycin treatment
Description: To generate a Pten-null T-ALL mouse model, Pten was 40% deleted in mouse fetal liver hematopoietic stem cells (HSCs), followed by PI3K-AKT pathway activation, hematopoietic disorder and T-ALL development. In the T-ALL crisis stage, T-ALL blasts and LICs would infiltrate mouse hematopoietic organs and non-hematopoietic organs.
After treatment, hematopoietic and non-hematopoietic organ morphology of the mice was analyzed using hematoxylin-eosin (H&E) staining.

[4] = test system: bleomycin-induced pulmonary fibrosis; test: bleomycin-induced pulmonary fibrosis, preventive and therapeutic models; format: in vivo, mouse
Description: Methods: To evaluate the preventive and therapeutic effects of compound I-1 on pulmonary fibrosis, bleomycin was used to establish two animal models of pulmonary fibrosis with different drug intervention (6-8 weeks, C57BL/6, male). Bleomycin (0.025U, Code.D11063, OKA, China) was injected by a single intratracheal application. Equal volumes of sterilized saline served as a control. (I) Preventive model of bleomycin-induced pulmonary fibrosis. Compounds compound I-1, positive control DB1976, or vehicle (saline) were treated (injected intraperitoneally, i.p.) immediately after single bleomycin injection for 4 weeks (FIG. 4a). (II) Therapeutic model of bleomycin-induced pulmonary fibrosis. Mice were pre-charged with bleomycin for 11 days to induced pulmonary fibrosis, then treated with compounds compound I-1, positive control DB1976, or vehicle (saline) for 17 days, total time is 4 weeks after bleomycin treatment (FIG. 4h). After the last day of treatment of both models, mice were fasted overnight and euthanized. A part of lung was fixed with paraformaldehyde, embedded with paraffin, and then sliced for H&E and Sirius red staining to check pathological features, and Ashcroft scores. Hubner, R. H. et al. Biotechniques 44, 507-511, 514-507, doi:10.2144/000112729 (2008). Another part of lung were collected and stored in −80° C. after liquid nitrogen quick-freezing, RNA isolation (Code.R6934, OMEGA, USA), first cDNA reverse (Code.AT341, TransGen, China), SYBR mix (Code.AQ601, TransGen, China) for Q-PCR (LightCycle96, Roche) to verify several fibrosis-related genes mRNA level, such as, Col1a1 and Col1a2.

[5] = preventive model, 5mpk i.p., 4 weeks

## N=C(N)c1ccc2nc(-c3ccc(NC(=O)[C@@H]4CCCN4C(=O)[C@@H]4CCCN4C(=O)c4ccc(-c5nc6ccc(C(=N)N)cc6[nH]5)cc4)cc3)[nH]c2c1 [Compound I-1, (S)-1-((4-(6-carbamimidoyl-1H-benzo[d]imidazol-2-yl)benzoyl)-L-prolyl)-N-(4-(6-carbamimidoyl-1H-benzo[d]imidazol-2-yl)phenyl)pyrrolidine-2-carboxamide]
[1]; fasting serum
  level of serum ALT: tendency to reduce
[1]; fasting serum, i.p. once daily for 4 weeks
  serum triglyceride (TG) and total-cholesterol (TC): reduced
[1]; i.p. once daily for 4 weeks with CCl4 under HFD
  body weight, gWAT and iWAT weight radio increased by HFD/CCL4: reversed
[1]; liver
  reducing fat accumulation (H&E staining, liver steatosis score): not efficacious
  reducing inflammatory response (inflammatory infiltrates, inflammation score, liver mRNA of IL-1β and IL-6): efficacious
[1]; mouse, in vivo
  collagen deposition (sirius red staining) and liver mRNA level of Col1a1 and Col1a2: reduced
  hepatotoxicity under its effective concentration: not hepatotoxic
  liver fibrosis induced by HFD/CCL4 application: significantly alleviated
[2]; preventive model, 5mpk i.p. simultaneously with bleomycin for 4 weeks, vs bleomycin/vehicle
  skin fibrosis progress: significantly prevented
[2]; [5]
  collagen deposition: reducing
  epidermal thickness: reducing
[2]; preventive model, 5mpk i.p., 4 weeks, skin
  mRNA level of Col1a1 and Col1a2: decreasing
[2]; therapeutic model, 3 weeks bleomycin then 3 weeks treatment, 5mpk
  bleomycin-induced skin fibrosis: significantly alleviated and reversed
[3]; after two days' treatment, bone marrow, without treatment 33.5%
  TIM-3 high LICs proportion: 6.15%
[3]; after two days' treatment, bone marrow, spleen and thymus
  reduction of proportion of blasts (in words): did not reduce
[3]; treated at blast crisis stage for one month, thymus and spleen
  organ morphology (H&E staining) compared with T-ALL group: no significant changes
[4]; preventive model, 5mpk i.p. for 4 weeks after single bleomycin injection
  pulmonary fibrosis progress (staining, Ashcroft scores, collagen deposition, Col1a1, Col1a2 mRNA): significantly prevented
[4]; therapeutic model, 11 days after bleomycin then 17 days treatment, 5mpk
  bleomycin-induced pulmonary fibrosis: reversed and impede
